Measurements as given in patent US20230310627A1, “COMBINATION THERAPY WITH ANTI-TROP-2 ANTIBODIES AND PARP INHIBITORS” (priority 2021, published 2023).

Key:
[1] = veliparib in combination with topotecan; cited from earlier work
TNBC xenografts = conditions: nude mice bearing TNBC xenografts; independent of BRCA1/2 mutation status; cited from earlier work
patients with mTNBC = assay: Phase 1b/2 open-label study of SG in combination with talazoparib (NCT04039230); assay type: in vivo, human; conditions: every 21 days
Procedure: Study Design: In a Phase 1b/2, open-label study, SG was administered in combination with talazoparib for patients with mTNBC (clinicaltrials.gov#NCT04039230; FIG. 2A). Treatment cycles were continued until unacceptable toxicity or progression of disease at the discretion of the treating physician. Within 4 weeks prior to the first dose of study treatment administration, baseline evaluations were completed which included patient medical and surgical history, a physical examination with vital signs and performance evaluation, laboratories, and tumor assessment imaging. Once on active treatment, patients were administered SG and talazoparib over a 21 day cycle or 28 day cycle. […] All patients were monitored closely over the course of their treatment and NCI CTC v5.0 was used to grade all adverse events and provide dose reduction, delay, or cessation guidelines in the event of treatment-related toxicity. […]
Study Population: Patients enrolled were 18 years of age or older with histological or cytological confirmation of TNBC as determined by the local institution, with metastatic disease documented by CT or MRI imaging, and currently have measurable disease by CT/MRI. […]
Endpoints: Safety and tolerability of SG in combination with talazoparib was evaluated from adverse events, standard safety laboratories, physical examination, vital signs, and EKG. […]

[2] = tested on: phosphorylated histone H2AX (γH2AX); assay: Flow cytometry of phosphorylated histone H2AX (γH2AX); assay type: cell-based
Procedure: Flow Cytometry: For flow cytometry detection of γH2AX (also known as g-H2AX), 1×10^6 cells were collected and fixed with 4% paraformaldehyde at 4° C. for 20 min and then permeabilized with 0.25% Triton X-100 in PBS. After blocking with 2% BSA in PBS at 4° C. for 20 min, the cells were stained with Alexa Fluor® 488 conjugated anti-phospho Histone H2A.X antibody (EMD Millipore, clone JBW301, #05-636-AF488) at 4° C. for 1 h. The cells were then washed twice with 2% BSA in PBS and counterstained with DAPI (Abcam, #ab228549). For flow cytometry detection of apoptotic cells, 1×10^6 cells were collected, and the staining was performed by using eBioscience™ Annexin V Apoptosis Detection Kit APC (Invitrogen, #88-8007) according to manufacturer's instruction. Samples were examined using a FACSAria flow cytometer. […]
Without wishing to be bound by any theory, sequential PARPi is believed to enhance SG toxicity through stabilization of TOP1CC that persist following SG washout due to the high delivered SN38 concentration in tumor cells (FIG. 3A). TOP1CC was quantified by two methods: the RADAR (Rapid Approach to DNA Adduct Recovery) assay, which detects TOP1 covalently bound to DNA, and by immunofluorescence. […] Persistent TOP1CC are expected to lead to DNA damage including double-strand DNA breaks, which were quantified using flow cytometry to assess phosphorylated histone H2AX (γH2AX) staining. […]

[3] = target: T1, TOP1 cleavage complexes (TOP1CC) (Homo sapiens, UniProt P11387); assay: TOP1CC detection by RADAR assay and immunofluorescence; assay type: cell-based
T1 construct: endogenous in cells; host or cells: MDA-MB-468 breast cancer cells (immunofluorescence); TNBC cell models (RADAR)
T1 sequence (P11387 1-765): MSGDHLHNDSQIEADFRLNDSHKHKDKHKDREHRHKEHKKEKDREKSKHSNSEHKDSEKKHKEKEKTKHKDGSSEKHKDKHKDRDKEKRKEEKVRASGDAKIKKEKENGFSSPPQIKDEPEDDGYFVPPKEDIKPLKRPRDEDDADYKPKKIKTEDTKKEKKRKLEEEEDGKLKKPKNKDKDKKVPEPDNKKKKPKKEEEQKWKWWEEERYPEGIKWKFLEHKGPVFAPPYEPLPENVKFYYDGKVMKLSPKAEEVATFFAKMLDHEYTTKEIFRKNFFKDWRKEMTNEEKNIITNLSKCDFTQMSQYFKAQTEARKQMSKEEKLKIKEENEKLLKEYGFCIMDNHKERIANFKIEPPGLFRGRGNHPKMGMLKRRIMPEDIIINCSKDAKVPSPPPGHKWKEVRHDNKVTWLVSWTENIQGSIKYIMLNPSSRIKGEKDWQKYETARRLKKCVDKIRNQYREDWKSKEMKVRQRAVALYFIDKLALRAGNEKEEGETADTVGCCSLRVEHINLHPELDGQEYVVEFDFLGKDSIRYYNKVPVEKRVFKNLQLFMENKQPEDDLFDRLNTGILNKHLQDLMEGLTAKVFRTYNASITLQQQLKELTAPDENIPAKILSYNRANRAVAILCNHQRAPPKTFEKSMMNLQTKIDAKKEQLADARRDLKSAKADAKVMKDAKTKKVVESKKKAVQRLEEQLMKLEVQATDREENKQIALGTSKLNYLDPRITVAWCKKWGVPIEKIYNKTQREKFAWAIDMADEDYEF
Procedure: Modification of the RADAR assay for detection of TOP1CC: Detection of TOP1CC was performed according to the published protocol (PMID: 34408146) with minor modification. After SG and/or TZP treatment, 1×10^6 cells per condition were washed with 1×PBS and lysed with 600 μl DNAzol (Invitrogen) at 4° C. for 10 min, followed by precipitation with 300 μl 100% ethanol. The nucleic acids were collected by centrifugation at 15,000 rpm for 10 min at 4° C., washed with 75% ethanol twice and resuspended in 200 μl TE buffer. The samples were then heated at 65° C. for 15 min, followed by shearing with sonication (40% output for 10 s pulse and 10 s rest for four times). […] The concentration of the sample was quantified by NanoDrop. […]
Immunofluorescence: To visualize TOP1CC by immunofluorescence, cells were plated into 96-well plates having #1.5 glass coverslips (Cellvis, P98-1.5H-N). […] Images were compiled and quantified using ImageJ software.
Without wishing to be bound by any theory, sequential PARPi is believed to enhance SG toxicity through stabilization of TOP1CC that persist following SG washout due to the high delivered SN38 concentration in tumor cells (FIG. 3A). TOP1CC was quantified by two methods: the RADAR (Rapid Approach to DNA Adduct Recovery) assay, which detects TOP1 covalently bound to DNA, and by immunofluorescence. […]

[4] = tested on: normal diploid cells (WI-38); assay: In vitro cytotoxicity of sequential SG then talazoparib in normal diploid cells; assay type: cell-based
Procedure: Cell Lines and Cell Culture: All cell lines were obtained from the MGH Center for Molecular Therapeutics cell bank in and underwent high-density SNP typing to confirm their identity. All experiments shown were performed within less than 6 months' passage of all lines since acquisition. Cells were maintained at 37° C. in 5% CO2. MDA-MB-468 cells were grown in RPMI (Lonza) supplemented with 10% FBS (SAFC), 1% penicillin (Gibco), streptomycin (Gibco). WI-38 cells were grown in DMEM (Lonza) supplemented with 10% FBS (SAFC), 1% penicillin (Gibco), streptomycin (Gibco).
TROP2-expressing TNBC cells or normal diploid cells were exposed to SG, followed by washout, then PARPi treatment with Talazoparib.

[5] = tested on: patients with previously treated mTNBC; conditions: phase III ASCENT; cited from earlier work
colorectal cancer = conditions: continuous olaparib administration; cited from earlier work

For C[C@]1(c2nc3c(C(N)=O)cccc3[nH]2)CCCN1 [veliparib], the “MTD in the combination relative to single-agent MTD” value [1] is given as 3%.

For Cn1ncnc1[C@H]1c2n[nH]c(=O)c3cc(F)cc(c23)N[C@@H]1c1ccc(F)cc1 [talazoparib], the “tumor growth inhibition in combination with sacituzumab govitecan” value (from here on “tumor growth inhibition in combination”) (TNBC xenografts) is listed as “Synthetic lethality and synergistic inhibition of tumor growth” and the “recommended phase-2 dose (R2PD)” value (patients with mTNBC; talazoparib on days 15-21 after SG) is listed as 1 mg.

In the case of CNCc1ccc(-c2[nH]c3cc(F)cc4c3c2CCNC4=O)cc1 [rucaparib], the “tumor growth inhibition in combination” value (TNBC xenografts) is listed as “Synthetic lethality and synergistic inhibition of tumor growth”.

For CC[C@@]1(O)C(=O)OCc2c1cc1n(c2=O)Cc2cc3c(CN(C)C)c(O)ccc3nc2-1 [topotecan], the “MTD in the combination relative to single-agent MTD” value [1] is given as 40%.

In the case of sacituzumab govitecan [SG], the “DNA damage (γH2AX staining) after SG washout” value [2] was “resolution of DNA damage within 24 hours”, the “TOP1CC following SG washout” value [3] was “resolved entirely within two hours” and the “recommended phase-2 dose (R2PD)” value (patients with mTNBC; sequential SG on days 1,8 with talazoparib) was 10 mg/kg. For the same molecule, the “SG sensitivity (cytotoxicity)” value [4] was “little SG sensitivity”, the median overall survival [5] was 12.1 months and the median progression-free survival [5] was 5.6 months.

For O=C(c1cc(Cc2n[nH]c(=O)c3ccccc23)ccc1F)N1CCN(C(=O)C2CC2)CC1 [olaparib], the “tumor growth inhibition in combination” value (TNBC xenografts) is listed as “Synthetic lethality and synergistic inhibition of tumor growth” and the “toxicity of the combination with irinotecan” value (colorectal cancer) is listed as “higher-than-expected toxicities and considered intolerable”.
